Measured values as given in patent publication US7588931B2, “High arachidonic acid producing strains of Yarrowia lipolytica” (E. I. du Pont de Nemours and Company, priority 2004, dated 2009).
Entries after “also recorded” stand apart in the source; their conditions may differ.

Tests used:
Format in all cases: cell-based, Yarrowia lipolytica
[1] = tested on: β-glucuronidase (GUS) reporter; test: Comparative analysis of promoters by histochemical analysis of GUS expression
Description: Comparative studies investigating the promoter activities of the TEF, GPD, GPDIN, GPM, GPAT, FBA, FBAIN and YAT1 promoters were performed, by synthesizing constructs comprising each promoter and the E. coli gene encoding β-glucuronidase (GUS) as a reporter gene (Jefferson, R. A. Nature. 14(342):837-838 (1989)). Then, GUS activity was measured by histochemical and fluorometric assays (Jefferson, R. A. Plant Mol. Biol. Reporter 5:387-405 (1987)) and/or by using Real Time PCR for mRNA quantitation.
Yarrowia lipolytica ATCC #76982 strains containing plasmids pY5-30, pYZGDG, pYZGMG, pDMW212 and pDMW214 were grown from single colonies in 3 mL MM at 30° C. to an OD600˜1.0. Then, 100 μl of cells were collected by centrifugation, resuspended in 100 μl of histochemical staining buffer, and incubated at 30° C. Staining buffer was prepared by dissolving 5 mg of 5-bromo-4-chloro-3-indolyl glucuronide (X-Gluc) in 50 μl dimethyl formamide, followed by the addition of 5 mL 50 mM NaPO4, pH 7.0.
In a separate experiment, Y. lipolytica Y2034 strains containing plasmids pY5-30, pYGPAT-GUS, pYAT-GUS and pDMW214 were grown from single colonies in 5 mL SD media at 30° C. for 24 hrs to an OD600˜8.0. Then, 1 mL of cells were collected by centrifugation. The remaining cultures were centrifuged and washed 2× with HGM, resuspended in 5 mL each of HGM and allowed to grow at 30° C. further. […]

[2] = tested on: β-glucuronidase (GUS) reporter; test: Comparative analysis of promoters by fluorometric assay of GUS expression
Description: GUS activity was also assayed by fluorometric determination of the production of 4-methylumbelliferone (4-MU) from the corresponding substrate β-glucuronide (Jefferson, R. A. Plant Mol. Biol. Reporter 5:387-405 (1987)).
Yarrowia lipolytica ATCC #76982 strains containing plasmids pY5-30, PYZGDG, PYZGMG, pDMW212 and pDMW214 were grown from single colonies in 3 mL MM (as described above) at 30° C. to an OD600˜1.0. Then, the 3 mL cultures were each added to a 500 mL flask containing 50 mL MM and grown in a shaking incubator at 30° C. for about 24 hrs. The cells were collected by centrifugation, resuspended in Promega Cell Lysis Buffer and lysed using the BIO 101 Biopulverizer system (Vista, Calif.). After centrifugation, the supernatants were removed and kept on ice.
Similarly, Y. lipolytica strain Y2034 containing plasmids pY5-30, pYAT-GUS, pYGPAT-GUS and pDMW214 constructs, respectively, were grown from single colonies in 10 mL SD medium at 30° C. for 48 hrs to an OD600˜5.0. Two mL of each culture was collected for GUS activity assays, as described below, while 5 mL of each culture was switched into HGM.
Specifically, cells from the 5 mL aliquot were collected by centrifugation, washed once with 5 mL of HGM and resuspended in HGM. The cultures in HGM were then grown in a shaking incubator at 30° C. for 24 hrs. Two mL of each HGM culture were collected for the GUS activity assay, while the remaining culture was allowed to grow for an additional 96 hrs before collecting an additional 2 mL of each culture for the assay.
Each 2 mL culture sample in SD medium was resuspended in 1 mL of 0.5× cell culture lysis reagent (Promega). Resuspended cells were mixed with 0.6 mL of glass beads (0.5 mm diameter) in a 2.0 mL screw cap tube with a rubber O-ring. The cells were then homogenized in a Biospec mini beadbeater (Bartlesville, Okla.) at the highest setting for 90 sec. The homogenization mixtures were centrifuged for 2 min at 14,000 rpm in an Eppendof centrifuge to remove cell debris and beads. The supernatant was used for GUS assay and protein determination.
For each fluorometric assay, 100 μl of extract was added to […] of GUS assay buffer (2 mM 4-methylumbelliferyl-β-D-glucuronide (“MUG”) in extraction buffer) or 200 μl of extract was added to 800 μl of GUS assay buffer. The mixtures were placed at 37° C. Aliquots of 100 μl were taken at 0, 30 and 60 min time points and added to 900 μl of stop buffer (1 M Na2CO3). Each time point was read using a CytoFluor Series 4000 Fluorescence Multi-Well Plate Reader (PerSeptive Biosystems, Framingham, Mass.) set to an excitation wavelength of 360 nm and an emission wavelength of 455 nm. Total protein concentration of each sample was determined using 10 μl of extract and 200 μl of BioRad Bradford reagent or 20 μl of extract and 980 μl of BioRad Bradford reagent (Bradford, M. M. Anal. Biochem. 72:248-254 (1976)). GUS activity was expressed as nmoles of 4-MU per minute per mg of protein.

[3] = tested on: β-glucuronidase (GUS) reporter; test: Relative promoter activity rank from comparative GUS reporter studies (histochemical, fluorometric and/or Real Time PCR); settings: relative to other promoters
Description: The activity of GPM is about the same as TEF, while the activity of GPD, FBA, FBAIN, FBAINm, GPDIN, GPAT, YAT1 and EXP1 are all greater than TEF (activity is quantified in a relative manner in the column titled “Activity Rank”, wherein a ‘1’ corresponds to the promoter with lowest activity, while a ‘7’ corresponds to the promoter with highest activity). […] GUS activity in each expressed construct was measured by histochemical and/or fluorometric assays (Jefferson, R. A. Plant Mol. Biol. Reporter 5:387-405 (1987)) and/or by use of Real Time PCR.

[4] = tested on: wild type Y. lipolytica strains ATCC #20362 and ATCC #90812; test: Sulfonylurea sensitivity screening of wild type strains; settings: wild type strains ATCC #20362 and ATCC #90812
Description: When the amino acid sequences of wild type AHAS Y. lipolytica (GenBank Accession No. XP—501277) and S. cerevisiae (GenBank Accession No. P07342) enzymes were aligned, the Trp amino acid residue at position 586 of the S. cerevisiae enzyme was equivalent to the Trp residue at position 497 of the Y. lipolytica enzyme. It was therefore hypothesized that W497L mutation in the Y. lipolytica enzyme would likely confer sulfonylurea herbicide resistance, if the wild type cells were themselves sensitive to sulfonylurea. Using methodology well known to those of skill in the art, it was determined that sulfonylurea (chlorimuron ethyl) at a concentration of 100 μg/mL in minimal medium was sufficient to inhibit growth of wild type Y. lipolytica strains ATCC #20362 and ATCC #90812.

Molecule: YAT1: Y. lipolytica ammonium transporter promoter, SEQ ID NO:165
- promoter activity by histochemical staining ([1]; strain Y2034, 24 hr in SD medium, FIG. 5C): active; also recorded: stronger than the TEF promoter but significantly weaker than the FBAIN promoter and GPAT promoter
- promoter activity by histochemical staining ([1]; strain Y2034, grown in HGM for 24 hrs): stronger than the GPAT promoter and comparable with the FBAIN promoter
- promoter activity relative to activity in SD medium ([2]; after 120 hrs in HGM): 25 ×
- GUS activity ([2]; strain Y2034, 24 hr, HGM): 19.154 nmoles of 4-MU per minute per mg of protein
- GUS activity ([2]; strain Y2034, 48 hr, SD): 0.536 nmoles of 4-MU per minute per mg of protein
- GUS activity ([2]; strain Y2034, 120 hr HGM): 13.400 nmoles of 4-MU per minute per mg of protein
- increase of promoter activity ([2]; switched from SD medium into HGM and grown for 24 hrs): ~37 fold
- Activity “Rank” [3]: 6

Molecule: CCOC(=O)c1ccccc1S(=O)(=O)NC(=O)Nc1nc(Cl)cc(OC)n1 [chlorimuron ethyl]
- concentration in minimal medium sufficient to inhibit growth [4]: 100 µg/mL
